PubChem BioAssay (NCI)
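Values below derive from 48-hour exposures of cells grown in 96-well plates, with endpoints linearly interpolated between the two concentrations bracketing the appropriate inhibition level. The concentration for full growth arrest is given as TGI.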

Key:
Experiment in all cases: growth of human tumour cells (NCI), 48 h
NCI-H460 lung = tested on: NCI-H460 lung
SNB-19 CNS = tested on: SNB-19 CNS
RXF-631 renal = tested on: RXF-631 renal
OVCAR-5 ovarian = tested on: OVCAR-5 ovarian
U251 CNS = tested on: U251 CNS
OVCAR-3 ovarian = tested on: OVCAR-3 ovarian
UACC-62 melanoma = tested on: UACC-62 melanoma
HOP-18 NSCLC = tested on: HOP-18 NSCLC
SW-620 colon = tested on: SW-620 colon
SK-OV-3 ovarian = tested on: SK-OV-3 ovarian
SNB-75 CNS = tested on: SNB-75 CNS
HCT-116 colon = tested on: HCT-116 colon
TK-10 renal = tested on: TK-10 renal
NCI-H23 lung = tested on: NCI-H23 lung
OVCAR-8 ovarian = tested on: OVCAR-8 ovarian
SR leukemia = tested on: SR leukemia
UO-31 renal = tested on: UO-31 renal
HOP-62 NSCLC = tested on: HOP-62 NSCLC
HT29 colon = tested on: HT29 colon
RPMI-8226 leukemia = tested on: RPMI-8226 leukemia
A549 NSCLC = tested on: A549 NSCLC
MALME-3M melanoma = tested on: MALME-3M melanoma
LXFL 529 NSCLC = tested on: LXFL 529 NSCLC
UACC-257 melanoma = tested on: UACC-257 melanoma
SF-539 CNS = tested on: SF-539 CNS
HCT-15 colon = tested on: HCT-15 colon
SN12C renal = tested on: SN12C renal
SNB-78 CNS = tested on: SNB-78 CNS
EKVX NSCLC = tested on: EKVX NSCLC
CCRF-CEM leukemia = tested on: CCRF-CEM leukemia
HOP-92 NSCLC = tested on: HOP-92 NSCLC
SF-295 CNS = tested on: SF-295 CNS
DMS 273 small cell lung = tested on: DMS 273 small cell lung
XF 498 CNS = tested on: XF 498 CNS
M19-MEL melanoma = tested on: M19-MEL melanoma
MOLT-4 leukemia = tested on: MOLT-4 leukemia
SF-268 CNS = tested on: SF-268 CNS
ACHN renal = tested on: ACHN renal
RXF 393 renal = tested on: RXF 393 renal
HL-60(TB) leukemia = tested on: HL-60(TB) leukemia
HCC-2998 colon = tested on: HCC-2998 colon
DLD-1 colon = tested on: DLD-1 colon
KM20L2 colon = tested on: KM20L2 colon
COLO 205 colon = tested on: COLO 205 colon
786-0 renal = tested on: 786-0 renal
LOX IMVI melanoma = tested on: LOX IMVI melanoma
SK-MEL-28 melanoma = tested on: SK-MEL-28 melanoma
SK-MEL-2 melanoma = tested on: SK-MEL-2 melanoma
NCI-H226 lung = tested on: NCI-H226 lung
IGROV1 ovarian = tested on: IGROV1 ovarian
NCI-H522 lung = tested on: NCI-H522 lung
M14 melanoma = tested on: M14 melanoma
KM12 colon = tested on: KM12 colon
K-562 leukemia = tested on: K-562 leukemia
DMS 114 small cell lung = tested on: DMS 114 small cell lung
SK-MEL-5 melanoma = tested on: SK-MEL-5 melanoma
A498 renal = tested on: A498 renal
CAKI-1 renal = tested on: CAKI-1 renal
OVCAR-4 ovarian = tested on: OVCAR-4 ovarian

Measured: TGI

COc1cc(Nc2cnc3cc(C(F)(F)F)ccc3n2)cc(OC)c1OC
not listed: IGROV1 ovarian | NCI-H522 lung | M14 melanoma | KM12 colon | K-562 leukemia | DMS 114 small cell lung | SK-MEL-5 melanoma | A498 renal | CAKI-1 renal | OVCAR-4 ovarian
> 100 µM: all other assays above

CSC(=S)c1ccc(C(=S)SC)cc1
not listed: CCRF-CEM leukemia | ACHN renal | SK-MEL-28 melanoma | SK-MEL-2 melanoma
> 100 µM: all other assays above
